Data taken from patent US9642869B2, “Boronic acid derivatives and therapeutic uses thereof” (Rempex Pharmaceuticals, Inc., priority 2013, dated 2017).
pKi: −log10 of the molar value. Like-named read-outs stand apart in the source and are kept apart here.

How the values were obtained:
[1] = tested on: SHV-5 ec308; test: Aztreonam potentiation (MPC@4); format: cell-based; details: minimum BLI concentration inhibiting growth with 4 μg/mL aztreonam
[2] = tested on: KPC-2 KP1004; test: Aztreonam potentiation (MPC@4); format: cell-based; details: minimum BLI concentration inhibiting growth with 4 μg/mL aztreonam
[3] = tested on: ECL1002; test: Aztreonam potentiation (MPC@4); format: cell-based; details: minimum BLI concentration inhibiting growth with 4 μg/mL aztreonam
[4] = tested on: CTX-M-14 KP1005; format: cell-based
[5] = tested on: CTX-M-15 KP1009; format: cell-based
[6] = tested on: SHV-5 ec308; format: cell-based; details: minimum BLI concentration inhibiting growth with tigemonam at 4 μg/mL
[7] = tested on: ECL1002; format: cell-based; details: minimum BLI concentration inhibiting growth with tigemonam at 4 μg/mL
[8] = tested on: KP1004 KPC-2; test: Biapenem potentiation (MPC@1); format: cell-based; details: minimum BLI concentration inhibiting growth with 1 μg/mL biapenem
Method: (§1) Biapenem was present in the test medium at 1 μg/mL. […] Table 3 summarizes the BLI potency of biapenem potentiation (MPC@1) for two strains overexpressing class A (KPC) and class D (OXA-48) carbapenemases. Biapenem MIC for each strain is also shown.

[9] = tested on: OXA-48 KP1086; test: Biapenem potentiation (MPC@1); format: cell-based; details: minimum BLI concentration inhibiting growth with 1 μg/mL biapenem
Method: as §1

[10] = Intravenous pharmacokinetics; format: in vivo; details: rat, plasma, rats, IV infusion over 0.5 hours, read-out: Free Cl (converted)
Method: Rats (n=3 per compound) were administered by a single infusion. IV doses were infused over 0.5 hours via an indwelling femoral vein cannula. Plasma (˜0.3 mL) samples were collected from each rat at designated time points up to 24 hours. Blood samples were centrifuged within 5 min of collection at 12000 g for 5 min to obtain plasma. The plasma samples were stored at −80° C. until analyzed. Data were analyzed using WinNonlin.

[11] = Serum stability of prodrugs (hydrolysis by human serum); format: in vitro ADME; details: 37° C.
Method: (§2) Prodrug strategy is one of the ways to achieve or increase oral bioavailability of therapeutic drugs. Compound 13 was used as template a for various ester prodrugs. After a prodrug molecule is absorbed into systemic circulation, the prodrug molecule can be hydrolyzed in the blood to release the active form. The hydrolysis of several prodrugs by rat and human serum were evaluated.
(§3) For all stability experiments the test compounds are treated with rat or human serum in Eppendorf tubes. One example of the testing procedures includes: 992 μl of serum was prewarmed at 37° C. for 2 minutes and then 8 μl of a compound (at 5 mg/ml, 125×) was added to get a final concentration of 40 μg/ml and immediately mixed. Alternatively, serum stability can be tested at 1 mg/ml. […] After vortexing for 30 seconds, the tube was centrifuged in a microcentrifuge for 10 minutes at 15K rpm. Next, 100 μl of the supernatant was combined with 600 μl of water and injected on LC-MS using 0.1% formic acid in water for mobile phase A and 0.1% formic acid in methanol for mobile phase B on an ACE 5 C18 2.1×100 mm column with a 10 μL injection. The flow rate and gradient are adjusted as needed to give the desired resolution and run time. The pH of the mobile phase is adjusted if needed to improve the chromatography.
(§4) The time course of both the disappearance of a prodrug and the appearance of the active form of that prodrug is presented in Table 9a and Table 9b.

[12] = Serum stability of prodrugs (hydrolysis by rat serum); format: in vitro ADME; details: 37° C.
Method: as §2, §3, §4

[13] = target: SHV-12 (Klebsiella pneumoniae, UniProt P0AD64, E235K/G234S/L31Q); test: Inhibition of nitrocefin cleavage by purified enzyme (Ki); format: biochemical; details: nitrocefin reporter substrate, 10 min preincubation; read-out: Ki (SHV-12, NCF)
Method: Purified enzymes were mixed with various concentrations of inhibitors in reaction buffer and incubated for 10 min at room temperature. Nitrocefin was added and substrate cleavage profiles were recorded at 490 nm every 10 sec for 10 min.

[14] = minimum BLI concentration inhibiting growth with tigemonam at 4 μg/mL

Sequence of SHV-12 (P0AD64 22-286 L31Q/G234S/E235K): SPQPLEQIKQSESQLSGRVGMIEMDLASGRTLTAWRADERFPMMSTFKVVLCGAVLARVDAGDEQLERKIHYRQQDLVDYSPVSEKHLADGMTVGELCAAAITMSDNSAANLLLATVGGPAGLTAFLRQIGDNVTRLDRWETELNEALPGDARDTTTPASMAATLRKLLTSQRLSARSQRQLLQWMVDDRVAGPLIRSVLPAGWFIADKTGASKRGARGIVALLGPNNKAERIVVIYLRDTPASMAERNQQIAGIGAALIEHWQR

| Structure (SMILES) | AZT MPC4 SHV-5 ec308 [1] | AZT MPC4 KPC-2 KP1004 [2] | AZT MPC4 ECL1002 [3] | TIG MPC4 CTX-M-14 KP1005 [4] | TIG MPC4 CTX-M-15 KP1009 [5] | TIG MPC4 SHV-5 ec308 [6] | TIG MPC4 ECL1002 [7] | BPM MPC1 KP1004 KPC-2 [8] | BPM MPC1 OXA-48 KP1086 [9] | clearance ([10]; dose 20 mg/kg) [mL/min/kg] | Measured Initial Conc. in Serum (prodrug) [11] [µg/mL] | Conc. at t = 2 hr (prodrug) [11] | Conc. at t = 4 hr (prodrug) [11] | Measured Initial Conc. in Serum (prodrug) [12] [µg/mL] | Conc. at t = 2 hr (prodrug) [12] [µg/mL] | Conc. at t = 4 hr (prodrug) [12] | pKi [13] | clearance ([10]; dose 10 mg/kg) [mL/min/kg] | TIG MPC4 CTX-M-14 KP1005 [4, 14] | TIG MPC4 CTX-M-15 KP1009 [5, 14] |
| --- | --- | --- | --- | --- | --- | --- | --- | --- | --- | --- | --- | --- | --- | --- | --- | --- | --- | --- | --- | --- |
| Nc1nnc(SCC(=O)N[C@H]2Cc3cccc(C(=O)O)c3OB2O)s1 [Compound 5, (R)-3-(2-(5-amino-1,3,4-thiadiazol-2-ylthio)acetamido)-2-hydroxy-3,4-dihydro-2H-benzo[e][1,2]oxaborinine-8-carboxylic acid] | X (MIC of less than 1 μg/mL) | Y (MIC of 1 μg/mL to 10 μg/mL) | Y (MIC of 1 μg/mL to 10 μg/mL) | X (key: X: MIC of less than 1 μg/mL; Y: MIC of 1 μg/mL to 10 μg/mL; Z: MIC of greater than 10 μg/mL) | X (key: X: MIC of less than 1 μg/mL; Y: MIC of 1 μg/mL to 10 μg/mL; Z: MIC of greater than 10 μg/mL) | Y (MIC of 1 μg/mL to 10 μg/mL) | X (MIC of less than 1 μg/mL) | X (MIC of less than 1 μg/mL) | Y (MIC of 1 μg/mL to 10 μg/mL) | 28.5 | – | – | – | – | – | – | – | – | – | – |
| CCC(CC)C(=O)OCOC(=O)c1cccc2c1OB(O)[C@@H](NC(=O)CSC)C2 [Compound 26, (R)-(2-ethylbutanoyloxy)methyl 2-hydroxy-3-(2-(methylthio)acetamido)-3,4-dihydro-2H-benzo[e][1,2]oxaborinine-8-carboxylate] | – | – | – | – | – | – | – | – | – | – | 1520 | 920 µg/mL | 790 µg/mL | 1380 | 1150 | 1080 µg/mL | – | – | – | – |
| CSCC(=O)N[C@H]1Cc2cccc(C(=O)OCOC(=O)OC(C)C)c2OB1O [Compound 24, (R)-(isopropoxycarbonyloxy)methyl 2-hydroxy-3-(2-(methylthio)acetamido)-3,4-dihydro-2H-benzo[e][1,2]oxaborinine-8-carboxylate] | – | – | – | – | – | – | – | – | – | – | 1790 | 550 µg/mL | 240 µg/mL | 1660 | 910 | 330 µg/mL | – | – | – | – |
| CSCC(=O)N[C@H]1Cc2cccc(C(=O)OCOC(=O)C(C)(C)C)c2OB1O [Compound 23, (R)-pivaloyloxymethyl 2-hydroxy-3-(2-(methylthio)acetamido)-3,4-dihydro-2H-benzo[e][1,2]oxaborinine-8-carboxylate] | – | – | – | – | – | – | – | – | – | – | 1860 | 1350 µg/mL | 1000 µg/mL | 1780 | 1440 | 1100 µg/mL | – | – | – | – |
| O=C(N[C@H]1Cc2cccc(C(=O)O)c2OB1O)c1cccnc1 [Compound 12, (R)-2-hydroxy-3-(nicotinamido)-3,4-dihydro-2H-benzo[e][1,2]oxaborinine-8-carboxylic acid] | Y (MIC of 1 μg/mL to 10 μg/mL) | Y (MIC of 1 μg/mL to 10 μg/mL) | X (MIC of less than 1 μg/mL) | Y (key: X: MIC of less than 1 μg/mL; Y: MIC of 1 μg/mL to 10 μg/mL; Z: MIC of greater than 10 μg/mL) | Y (key: X: MIC of less than 1 μg/mL; Y: MIC of 1 μg/mL to 10 μg/mL; Z: MIC of greater than 10 μg/mL) | Y (MIC of 1 μg/mL to 10 μg/mL) | X (MIC of less than 1 μg/mL) | X (MIC of less than 1 μg/mL) | Y (MIC of 1 μg/mL to 10 μg/mL) | – | – | – | – | – | – | – | > 9.00 | 45.7 | – | – |
| [N-]=[N+]=NCC(=O)N[C@H]1Cc2cccc(C(=O)O)c2OB1O [Compound 8, (R)-3-(2-azidoacetamido)-2-hydroxy-3,4-dihydro-2H-benzo[e][1,2]oxaborinine-8-carboxylic acid] | X (MIC of less than 1 μg/mL) | X (MIC of less than 1 μg/mL) | Y (MIC of 1 μg/mL to 10 μg/mL) | X (key: X: MIC of less than 1 μg/mL; Y: MIC of 1 μg/mL to 10 μg/mL; Z: MIC of greater than 10 μg/mL) | X (key: X: MIC of less than 1 μg/mL; Y: MIC of 1 μg/mL to 10 μg/mL; Z: MIC of greater than 10 μg/mL) | Y (MIC of 1 μg/mL to 10 μg/mL) | X (MIC of less than 1 μg/mL) | X (MIC of less than 1 μg/mL) | Y (MIC of 1 μg/mL to 10 μg/mL) | – | – | – | – | – | – | – | > 9.00 | 35 | – | – |
| CCCC(=O)OCOC(=O)c1cccc2c1OB(O)[C@@H](NC(=O)CSC)C2 [Compound 25, (R)-butyryloxymethyl 2-hydroxy-3-(2-(methylthio)acetamido)-3,4-dihydro-2H-benzo[e][1,2]oxaborinine-8-carboxylate] | – | – | – | – | – | – | – | – | – | – | 27.3 | NDT | NDT | 31.2 | 1.94 | NDT | – | – | – | – |
| O=C(CSC(F)(F)F)N[C@H]1Cc2cccc(C(=O)O)c2OB1O [Compound 1, (R)-2-hydroxy-3-(2-(trifluoromethylthio)acetamido)-3,4-dihydro-2H-benzo[e][1,2]oxaborinine-8-carboxylic acid] | X (MIC of less than 1 μg/mL) | Y (MIC of 1 μg/mL to 10 μg/mL) | Y (MIC of 1 μg/mL to 10 μg/mL) | – | – | X (MIC of less than 1 μg/mL) | X (MIC of less than 1 μg/mL) | X (MIC of less than 1 μg/mL) | Y (MIC of 1 μg/mL to 10 μg/mL) | – | – | – | – | – | – | – | > 9.00 | – | Y (MIC of 1 μg/mL to 10 μg/mL) | Y (MIC of 1 μg/mL to 10 μg/mL) |
| NC(=O)C(=O)N[C@H]1Cc2cccc(C(=O)O)c2OB1O [Compound 17, (R)-3-(2-amino-2-oxoacetamido)-2-hydroxy-3,4-dihydro-2H-benzo[e][1,2]oxaborinine-8-carboxylic acid] | X (MIC of less than 1 μg/mL) | Y (MIC of 1 μg/mL to 10 μg/mL) | Y (MIC of 1 μg/mL to 10 μg/mL) | Z (key: X: MIC of less than 1 μg/mL; Y: MIC of 1 μg/mL to 10 μg/mL; Z: MIC of greater than 10 μg/mL) | Y (key: X: MIC of less than 1 μg/mL; Y: MIC of 1 μg/mL to 10 μg/mL; Z: MIC of greater than 10 μg/mL) | Y (MIC of 1 μg/mL to 10 μg/mL) | Y (MIC of 1 μg/mL to 10 μg/mL) | X (MIC of less than 1 μg/mL) | Y (MIC of 1 μg/mL to 10 μg/mL) | – | – | – | – | – | – | – | 8.00 to 9.00 | – | – | – |
| CN(C)C(=O)CC(=O)N[C@H]1Cc2cccc(C(=O)O)c2OB1O [Compound 10, (R)-3-(3-(dimethylamino)-3-oxopropanamido)-2-hydroxy-3,4-dihydro-2H-benzo[e][1,2]oxaborinine-8-carboxylic acid] | Y (MIC of 1 μg/mL to 10 μg/mL) | X (MIC of less than 1 μg/mL) | Y (MIC of 1 μg/mL to 10 μg/mL) | Y (key: X: MIC of less than 1 μg/mL; Y: MIC of 1 μg/mL to 10 μg/mL; Z: MIC of greater than 10 μg/mL) | X (key: X: MIC of less than 1 μg/mL; Y: MIC of 1 μg/mL to 10 μg/mL; Z: MIC of greater than 10 μg/mL) | Y (MIC of 1 μg/mL to 10 μg/mL) | X (MIC of less than 1 μg/mL) | X (MIC of less than 1 μg/mL) | Y (MIC of 1 μg/mL to 10 μg/mL) | – | – | – | – | – | – | – | > 9.00 | – | – | – |
